The target of one series is AMPA receptor. Kind of series: 3H-AMPA binding (in vitro receptor affinity test). The arrangement: species or system rat. To be noted: cerebral cortex membranes from male Wistar rats; 3H-AMPA 5 nM; 30 minutes at 2° C.; read-out: IC50 (concentration of the test substance which inhibits the specific binding of 3H-AMPA by 50%). An excerpt:
In an in vitro activity (receptor affinity) test, the chemical compounds of the present invention have been tested for their affinity for the AMPA receptor.
L-glutamate (GLU) is the major excitatory neurotransmitter in the mammalian central nervous system. From electro-physiological- and binding studies, there appear to be at least three subtypes of GLU receptors, tentatively named N-methyl-D-aspartate (NMDA) receptors, quisqualate receptors and kainate receptors. AMPA has been known for several years to be a potent and selective agonist at the traditionally named quisqualate receptors. Activation of quisqualate receptors by AMPA is associated with Na^+influx and K^+efflux leading to depolarisation. ^3H-AMPA is a selective radioligand for labelling the ionotropic quisqualate (AMPA) receptors.
Preparations are performed at 0-4° C. unless otherwise indicated. Cerebral cortex from male Wistar rats (150-200 g) is homogenised for 5-10 sec in 20 ml Tris-HCl (30 mM, pH 7.4) using an Ultra-Turrax™ homogeniser. The suspension is centrifuged at 27,000×g for 15 minutes and the pellet is washed three times with buffer (centrifuged at 27,000×g for 10 minutes). The washed pellet is homogenised in 20 ml of buffer and incubated on a water bath (of 37° C.) for 30 minutes to remove endogenous glutamate and then centrifuged for 10 minutes at 27,000×g. The pellet is then homogenised in buffer and centrifuged at for 10 minutes at 27,000×g. The final pellet is resuspended in 30 ml buffer and the preparation is frozen and stored at −20° C.
The membrane preparation is thawed and centrifuged at 2° C. for 10 minutes at 27,000×g. […] Non-specific binding is determined using L-glutamate (0.6 mM, final concentration).
After incubation the 550 μl samples are added 5 ml of ice-cold buffer and poured directly onto Whatman™ GF/C glass fibre filters under suction and immediately washed with 5 ml of ice-cold buffer. […] The amount of radioactivity on the filters is determined by conventional liquid scintillation counting. […]

Structures are written as SMILES. Structures can show the parent of a compound that is named as a salt. Some results are limits rather than exact numbers.

One may read the melting point as the temperature, or range, at which the solid turns liquid. On to `CN1CCc2c(-c3ccc(S(=O)(=O)N(C)C)cc3)cc3c(c2C1)NC(=O)C3=NOC1CCOC1=O` (centres unmarked) (as salt: hydrochloride) [8-methyl-5-(4-(N,N-dimethylsulfamoyl)phenyl)-6-7-8-9-tetrahydro-1H-pyrrolo[3,2-h]-isoquinoline-2,3-dione-3-O-(3-(2-oxo)tetrahydrofuryl) oxime, hydrochloride], for which the melting point is 245 °C (dec.).

`CN1CCc2c(-c3ccc(S(=O)(=O)N(C)C)cc3)cc3c(c2C1)NC(=O)C3=NOC(CCO)C(=O)O` (centres unmarked) (as salt: sodium) [8-methyl-5-(4-(N,N-dimethylsulfamoyl)phenyl)-6-7-8-9-tetrahydro-1H-pyrrolo[3,2-h]-isoquinoline-2,3-dione-3-O-(4-hydroxybutyric acid-2-yl)oxime sodium salt]: the melting point was > 200 °C (dec.).

Consider `CN1CCc2c(-c3ccc(S(=O)(=O)N(C)C)cc3)cc3c(c2C1)NC(=O)C3=NOC1CCOC1=O` (centres unmarked) [8-methyl-5-(4-(N,N-dimethylsulfamoyl)phenyl)-6-7-8-9-tetrahydro-1H-pyrrolo[3,2-h]-isoquinoline-2,3-dione-3-O-(3-(2-oxo)tetrahydrofuryl) oxime, hydrochloride], for which the IC50 at AMPA receptor was 150 nM. For the compound `CN1CCc2c(-c3ccc(S(=O)(=O)N(C)C)cc3)cc3c(c2C1)NC(=O)C3=NOC(CCO)C(=O)O` (centres unmarked) [8-methyl-5-(4-(N,N-dimethylsulfamoyl)phenyl)-6-7-8-9-tetrahydro-1H-pyrrolo[3,2-h]-isoquinoline-2,3-dione-3-O-(4-hydroxybutyric acid-2-yl)oxime sodium salt], the IC50 at AMPA receptor amounted to 50 nM.

`CCOC(=O)CO/N=C1\C(=O)Nc2c1cc(-c1ccc(S(=O)(=O)N(C)C)cc1)c1c2CN(C)CC1` [8-methyl-5-(4-(N,N-dimethylsulfamoyl)phenyl-6,7,8,9-tetrahydro-1H-pyrrolo [3,2-h]isoquinoline-2,3-dione-3-O-(ethoxycarbonylmethyl) oxime]: the IC50 on AMPA receptor is 100 nM.

The values above are taken from patent USRE38200E1, “Indole-2,3-dione-3-oxime derivatives” (NeuroSearch A/S, priority 1996, dated 2003).
